Test results published in PMC8752738, “A propolis-derived small molecule ameliorates metabolic syndrome in obese mice by targeting the CREB/CRTC2 transcriptional complex” (Nature Communications, 2022).
Several values for one entry are separate records, joined by “and”; a condition that tells them apart may be missing. Identical values can stand only once.

Legend:
[1] = test system: CREB phosphorylation, CRTC2 dephosphorylation; assay: Immunoblotting/immunostaining of P-CREB and CRTC2 in primary hepatocytes; format: cell-based, mouse; details: for Relative P-CREB/CREB density: Supp. Fig.10 c, individual replicates
Method: Immunoblotting and immunoprecipitation assays were performed as previously described, with antibodies recognizing CREB, Ser133-P-CREB, AMPK, P-AMPK, AKT, P-AKT (Cell Signaling), PGC-1α (Merck), CRTC2 (Calbiochem), PCK1 (Santa Cruz), SREBP1 (Santa Cruz), SREBP2 (BD), HA (Convance), LXRα (Santa Cruz), FLAG (Sigma), GST (Covance), HIS (Abmart), GAPDH (AOGMA), α-TUBULIN (Abmart), β-ACTIN (Abmart), and other antibodies (Supplementary Table 3). For immunostaining assays, primary cultured hepatocytes seeded on coverslips were fixed with 4% paraformaldehyde for 20 min, permeabilized with 0.3% Triton X-100 in PBS, and then blocked by 5% normal goat serum and 0.3% Triton X-100 in PBS, followed by incubation with anti-CREB (1:1000), anti-P-CREB (1:1000), or anti-HA (1:3000) antibodies for 1 h at 4 °C. Slides were then washed, and after washing, slides were incubated with fluorochrome-conjugated secondary antibodies (Invitrogen). Slides were then washed and mounted with Vectashield mounting media containing 4, 6-diamidino-2-phenylindole (DAPI).

[2] = target: T1, GST-CREB / FLAG-CRTC2 interaction (Homo sapiens, UniProt P16220); assay: GST-pull-down of FLAG-CRTC2 from HEK293T lysates by GST-CREB beads; format: biochemical
T1 construct: made in house; host or cells: GST-CREB beads (pGEX5X-1); FLAG-CRTC2 expressed in HEK293T cells
T1 sequence (P16220 whole entry): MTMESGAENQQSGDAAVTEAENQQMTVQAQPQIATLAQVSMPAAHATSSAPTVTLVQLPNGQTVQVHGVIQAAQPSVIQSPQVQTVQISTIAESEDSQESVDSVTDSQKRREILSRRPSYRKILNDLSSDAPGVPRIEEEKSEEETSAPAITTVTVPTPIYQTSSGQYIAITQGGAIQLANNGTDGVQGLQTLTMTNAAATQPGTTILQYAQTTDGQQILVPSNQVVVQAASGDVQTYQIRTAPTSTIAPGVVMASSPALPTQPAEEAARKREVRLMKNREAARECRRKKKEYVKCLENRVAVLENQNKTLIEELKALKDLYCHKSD
Description: To further confirm whether APC disrupts the protein association between CREB and CRTC2, we performed GST-pull-down assays in which GST-CREB beads were used to immunoprecipitated FLAG-tagged CRTC2 proteins that were expressed in HEK293T cells. As expected, APC attenuated the amounts of FLAG-CRTC2 proteins recovered by GST-CREB beads from HEK293T cell lysates (Fig. 2a). […] In contrast, APC had little effect on the association of GST-CREB with HA-P300 (Supplementary Fig. 2a), as well as the interaction between endogenous CRTC2 and CBP proteins (Fig. 2c). […]
Fig. 2 APC blocks interaction between CREB and CRTC2. a Analysis of GST-CREB immunoprecipitated with overexpressed FLAG-CRTC2 from the lysates of HEK293T cells. […] Data are represented as mean ± SEM); P values were determined by one-way ANOVA followed Dunnett’s multiple comparisons test. b Analysis of HA-CRTC2 immunoprecipitated with endogenous CREB from primary hepatocyte lysates. […] Data are represented as mean ± SEM; P values were determined by one-way ANOVA followed Dunnett’s multiple comparisons test. c Immunoblotting analysis of endogenous CREB, CRTC2, and CBP interaction by an anti-CRTC2 antibody from the lysate of primary hepatocytes. […] Data are represented as mean ± SEM; P values were determined by one-way ANOVA followed Dunnett’s multiple comparisons test (compared with APC = 0). […]

[3] = test system: cAMP in primary hepatocytes; assay: Measurement of cAMP levels; format: cell-based, mouse; details: for cAMP, mean / cAMP: Gluc; for cAMP, mean: n=4 (Ctrl_Gluc 10.79); for cAMP: Supp. fig.3c, individual replicates
Method: At the end of indicated treatments, primary hepatocytes were collected in lysis buffer. The cAMP contents of cell lysates were then determined using cAMP ELISA kits (R&D) and normalized by total protein content as determined by BCA assay (Thermo).

primary hepatocytes = assay: MTT assay, primary hepatocytes; format: cell-based, mouse; details: for Relative MTT absortance-48H, mean: n=5 (0 μM = 100); for Relative MTT absortance-48H: Supp. fig.3b, individual replicates
Method: Primary hepatocytes were exposed to APC at indicated concentrations for 48-h, then co-incubated with methyl thiazolyl tetrazolium (0.5 mg/mL in PBS, Sigma) solution for 5-h. After removing the solution, the purple crystals were dissolved using DMSO, and the absorbance was measured at 550 nm.

SMILES: CC(C)=CCc1cc(C=CC(=O)O)cc(CC=C(C)C)c1O [APC, 3,5-diprenyl-4-hydroxycinnamic acid]
- Relative P-CREB/CREB density ([1]; CT (no glucagon), CTRL about 1.0): 1.21 and 1.302 and 1.2292
- Relative P-CREB/CREB density ([1]; GLUC (glucagon), CTRL about 2.91): 3.03 and 2.994 and 2.993
- CREB phosphorylation induced by glucagon ([1]; primary hepatocytes): very little effect
- CRTC2 dephosphorylation or nuclear translocation ([1]; primary hepatocytes, APC 10 μM, glucagon): very little effect
- Pull down FLAG/GST band dentsity (FLAG in IP fraction) ([2]; Fig 2a source data, replicates, GST-CREB beads +, FLAG-CRTC2 +, APC + (10 μM)): 1.359 FOLDS and 1.3596 FOLDS and 1.382 FOLDS
- FLAG-CRTC2 recovered by GST-CREB beads ([2]; HEK293T lysates, APC 10 μM): attenuated
- cAMP, mean ([3]; APC 0.5H): 11.36 pmol/µg
- cAMP, mean ([3]; APC 1H): 10.43 pmol/µg
- cAMP, mean ([3]; APC 5H): 10.31 pmol/µg
- cAMP ([3]; APC 0.5H): 9.765 pmol/µg and 13.6965 pmol/µg and 13.5803 pmol/µg and 8.4137 pmol/µg
- cAMP ([3]; APC 1H): 10.9076 pmol/µg and 11.1137 pmol/µg and 11.3636 pmol/µg and 8.343 pmol/µg
- cAMP ([3]; APC 5H): 11.3502 pmol/µg and 9.481 pmol/µg and 11.2821 pmol/µg and 9.132 pmol/µg
- cAMP accumulation induced by glucagon ([3]; primary hepatocytes): did not alter
- Relative MTT absortance-48H, mean (primary hepatocytes; APC 1 μM): 102
- Relative MTT absortance-48H, mean (primary hepatocytes; APC 5 μM): 103.2
- Relative MTT absortance-48H, mean (primary hepatocytes; APC 25 μM): 101.9
- Relative MTT absortance-48H, mean (primary hepatocytes; APC 100 μM): 105.7
- hepatocyte viability (primary hepatocytes; APC up to 100 μM, 48-h): did not impair hepatocyte viability
- Relative MTT absortance-48H (primary hepatocytes; APC 1 uM): 101.3514 and 105.1051 and 97.5976 and 102.8529 (2×)
- Relative MTT absortance-48H (primary hepatocytes; APC 5 uM): 99.8499 and 98.3484 and 103.6036 and 105.1051 and 108.8589
- Relative MTT absortance-48H (primary hepatocytes; APC 25 uM): 96.6066 and 104.3544 and 100.6006 and 99.6096 and 108.1081
- Relative MTT absortance-48H (primary hepatocytes; APC 100 uM): 107.3574 and 101.1111 and 106.6066 and 109.6096 and 103.6036
